From patent US20230020329A1, “Annelated 9-hydroxy-1,8-dioxo-1,3,4,8-tetrahydro-2H-pyrido[1,2-a]pyrazine-7-carboxamides as HIV integrase inhibitors, methods of preparation and application thereof” (priority 2019, published 2023)
Read-outs that look alike come from different tables or passages of the source.

Experiments:
human plasma proteins = experiment: Plasma protein binding by equilibrium dialysis, human; assay type: in vitro ADME; conditions: for Binding class / Extraction / Permeability: human; for Bound: human plasma diluted to 50%, 37° C.; for Bound / Extraction / Permeability: 1 μM, 4 h; for Permeability: dialysis membrane
Procedure: (§1) To assess protein binding, pooled samples of blood plasma diluted with phosphate buffer up to 50% were used. The test was carried out in a teflon coated 48-well dialysis plate. Each well contained two separate chambers separated by a vertical semipermeable dialysis membrane with 8 kDa pores. A plasma sample with 1 μM of the test compound was placed into one of the chambers, and a buffer solution (pH=7.2) was placed in the other chamber. Over time, at 37° C. while rocking, passive diffusion of the unbound compound occurred and after 4 hours the equilibrium state between the chambers with plasma and the buffer solution was reached. The amount of free fraction was evaluated by HPLC-MS/MS following precipitation of the proteins by acetonitrile. Also, the study involved evaluation of stability of the substance during the 4-hour period and passive permeability through the dialysis membrane in the buffer by mass balance. Warfarin was used as the control compound. The results are presented in Table 4, from which it follows that the compounds of general formula 1.1 have a high degree of binding to human and rat plasma proteins.

rat plasma proteins = experiment: Plasma protein binding by equilibrium dialysis, rat; assay type: in vitro ADME; conditions: for Binding class / Extraction / Permeability: rat; for Bound: rat plasma diluted to 50%, 37° C.; for Bound / Extraction / Permeability: 1 μM, 4 h; for Permeability: dialysis membrane
Procedure: as §1

HIV-1 (IIIB strain) = experiment: Anti-HIV cytoprotection assay (XTT), HIV-1 IIIB in CEM-SS cells; assay type: cell-based; conditions: CEM-SS cell line, read-out: Inhibitory activity (EC50) against HIV-1 (IIIB strain)
Summary of the method: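 CEM-SS cells infected with a pre-titrated virus dose killing 85–95% of cells by day 6; protection from HIV-induced death read by XTT formazan. Compounds screened in triplicate at 30 and 10 nM, actives retested at 2 nM; AZT six-concentration curve on each plate as positive control.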

C[C@H]1CO[C@@H]2Cn3cc(C(=O)NCc4ncc(F)cc4F)c(=O)c(O)c3C(=O)N12 [Compound 1.1.17, (3S,11aR)-6-hydroxy-N-[(3,5-difluoropyridin-2-yl)methyl]-3-methyl-5,7-dioxo-2,3,5,7,11,11a-hexahydro[1,3]oxazolo[3,2-a]pyrido[1,2-d]pyrazine-8-carboxamide]
Binding class (human plasma proteins): High
Bound (human plasma proteins): 98.8%
Extraction (human plasma proteins): 94.6%
Permeability (human plasma proteins): 84.8%
Binding class (rat plasma proteins): High
Bound (rat plasma proteins): 99.9%
Extraction (rat plasma proteins): 108%
Permeability (rat plasma proteins): 90.9%
EC50 (HIV-1 (IIIB strain); Human immunodeficiency virus 1, IIIB, CEM-SS): 0.24 nM

C[C@H]1CO[C@@H]2Cn3cc(C(=O)NCc4ccc(F)nc4F)c(=O)c(O)c3C(=O)N12 [Compound 1.1.19, (3S,11aR)-6-hydroxy-N-[(2,6-difluoropyridin-3-yl)methyl]-3-methyl-5,7-dioxo-2,3,5,7,11,11a-hexahydro[1,3]oxazolo[3,2-a]pyrido[1,2-d]pyrazine-8-carboxamide]
Binding class (human plasma proteins): High
Bound (human plasma proteins): 99.0%
Extraction (human plasma proteins): 95.0%
Permeability (human plasma proteins): 84.0%
Binding class (rat plasma proteins): High
Bound (rat plasma proteins): 98.9%
Extraction (rat plasma proteins): 94.5%
Permeability (rat plasma proteins): 83.8%
EC50 (HIV-1 (IIIB strain)): 0.24 nM
